Laboratory results from patent publication US9328099B2, “Cyanomethylpyrazole carboxamides as janus kinase inhibitors” (Merck Sharp & Dohme Corp., priority 2011, dated 2016).

How the values were obtained:
[1] = molecular target: JAK1 (Homo sapiens (Human), UniProt P23458); assay: Jak Biochemical HTRF Assay, JAK1; conditions: HTRF biochemical assay, GST-tagged catalytic domain; top concentration tested […]; read-out: JAK1 IC50
From the text: (§1) Jak Biochemical HTRF Assay Protocol
(§2) Subsequent reagent additions employed an Agilent Bravo.

[2] = molecular target: JAK2 (Homo sapiens (Human), UniProt O60674); assay: Jak Biochemical HTRF Assay, JAK2; conditions: HTRF biochemical assay, GST-tagged catalytic domain; top concentration tested […]
From the text: as §1, §2

JAK1, sequence (P23458 875-1153): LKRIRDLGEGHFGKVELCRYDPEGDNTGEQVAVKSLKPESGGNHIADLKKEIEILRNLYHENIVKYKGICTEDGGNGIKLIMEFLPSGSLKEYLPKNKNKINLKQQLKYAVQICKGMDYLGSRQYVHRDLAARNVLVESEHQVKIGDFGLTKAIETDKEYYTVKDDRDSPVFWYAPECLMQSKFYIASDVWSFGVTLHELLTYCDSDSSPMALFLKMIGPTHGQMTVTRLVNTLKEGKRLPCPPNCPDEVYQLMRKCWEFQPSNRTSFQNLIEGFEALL
JAK2, sequence (O60674 849-1124): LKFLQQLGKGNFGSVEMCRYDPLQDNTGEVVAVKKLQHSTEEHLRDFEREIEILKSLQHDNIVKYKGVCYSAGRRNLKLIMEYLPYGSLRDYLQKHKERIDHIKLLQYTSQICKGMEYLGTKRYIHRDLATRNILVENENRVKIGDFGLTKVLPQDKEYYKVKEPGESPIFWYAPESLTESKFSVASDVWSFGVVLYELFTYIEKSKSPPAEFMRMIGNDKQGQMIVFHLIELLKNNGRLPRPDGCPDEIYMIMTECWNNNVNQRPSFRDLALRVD

SMILES	IC50 [1] [nM]	IC50 [2] [nM]
N#CCC1(n2cc(C(N)=O)c(Nc3ccnc(F)c3)n2)CCN(C(=O)CC2CC2)CC1 [Example 34-45, 1-[4-(cyanomethyl)-1-(cyclopropylacetyl)piperidin-4-yl]-3-[(2-fluoropyridin-4-yl)amino]-1H-pyrazole-4-carboxamide]	1	46
CC(C)[C@@H](O)C(=O)N1CCC(CC#N)(n2cc(C(N)=O)c(Nc3ccnc(F)c3)n2)CC1 [Example 34-46, 1-{4-(cyanomethyl)-1-[(2R)-2-hydroxy-3-methylbutanoyl]piperidin-4-yl}-3-[(2-fluoropyridin-4-yl)amino]-1H-pyrazole-4-carboxamide]	2	139
CC(C)[C@H](O)C(=O)N1CCC(CC#N)(n2cc(C(N)=O)c(Nc3ccnc(F)c3)n2)CC1 [Example 34-47, 1-{4-(cyanomethyl)-1-[(2S)-2-hydroxy-3-methylbutanoyl]piperidin-4-yl}-3-[(2-fluoropyridin-4-yl)amino]-1H-pyrazole-4-carboxamide]	2	79
N#CCC1(n2cc(C(N)=O)c(Nc3ccnc(F)c3)n2)CCN(C(=O)C2(C(F)(F)F)CCC2)CC1 [Example 34-51, 1-[4-(cyanomethyl)-1-{[1-(trifluoromethyl)cyclobutyl]carbonyl}piperidin-4-yl]-3-[(2-fluoropyridin-4-yl)amino]-1H-pyrazole-4-carboxamide]	4	37
N#CCC1(n2cc(C(N)=O)c(Nc3ccnc(F)c3)n2)CCN(C(=O)Cn2ccnc2)CC1 [Example 34-52, 1-[4-(cyanomethyl)-1-(1H-imidazol-1-ylacetyl)piperidin-4-yl]-3-[(2-fluoropyridin-4-yl)amino]-1H-pyrazole-4-carboxamide]	4	154
CC(C)(C)CC(=O)N1CCC(CC#N)(n2cc(C(N)=O)c(Nc3ccnc(F)c3)n2)CC1 [Example 34-54, 1-[4-(cyanomethyl)-1-(3,3-dimethylbutanoyl)piperidin-4-yl]-3-[(2-fluoropyridin-4-yl)amino]-1H-pyrazole-4-carboxamide]	0.6	44
CC(C)(C(=O)N1CCC(CC#N)(n2cc(C(N)=O)c(Nc3ccnc(F)c3)n2)CC1)C(F)(F)F [Example 34-55, 1-[4-(cyanomethyl)-1-(3,3,3-trifluoro-2,2-dimethylpropanoyl)piperidin-4-yl]-3-[(2-fluoropyridin-4-yl)amino]-1H-pyrazole-4-carboxamide]	1	28
N#CCC1(n2cc(C(N)=O)c(Nc3ccnc(F)c3)n2)CCN(C(=O)C2(C(F)(F)F)CC2)CC1 [Example 34-56, 1-[4-(cyanomethyl)-1-{[1-(trifluoromethyl)cyclopropyl]carbonyl}piperidin-4-yl]-3-[(2-fluoropyridin-4-yl)amino]-1H-pyrazole-4-carboxamide]	2	40
CC1(C(=O)N2CCC(CC#N)(n3cc(C(N)=O)c(Nc4ccnc(F)c4)n3)CC2)CCC1 [Example 34-60, 1-{4-(cyanomethyl)-1-[(1-methylcyclobutyl)carbonyl]piperidin-4-yl}-3-[(2-fluoropyridin-4-yl)amino]-1H-pyrazole-4-carboxamide]	8	115
CC(O)(C(=O)N1CCC(CC#N)(n2cc(C(N)=O)c(Nc3ccnc(F)c3)n2)CC1)C(F)F (stereo not drawn) [Example 34-61, 1-[4-(cyanomethyl)-1-(3,3-difluoro-2-hydroxy-2-methylpropanoyl)piperidin-4-yl]-3-[(2-fluoropyridin-4-yl)amino]-1H-pyrazole-4-carboxamide]	2	38
C[C@@H](O)CC(=O)N1CCC(CC#N)(n2cc(C(N)=O)c(Nc3ccnc(F)c3)n2)CC1 [Example 34-62, 1-{4-(cyanomethyl)-1-[(3R)-3-hydroxybutanoyl]piperidin-4-yl}-3-[(2-fluoropyridin-4-yl)amino]-1H-pyrazole-4-carboxamide]	1	47
N#CCC1(n2cc(C(N)=O)c(Nc3cncc(F)c3)n2)CCN(C(=O)CC(F)(F)F)CC1 [Example 35-3, 1-(4-(cyanomethyl)-1-(3,3,3-trifluoropropanoyl)piperidin-4-yl)-3-(5-fluoropyridin-3-ylamino)-1H-pyrazole-4-carboxamide]	3	35
N#CCC(=O)N1CCC(CC#N)(n2cc(C(N)=O)c(Nc3ccccc3)n2)CC1 [Example 36-1, 1-[1-(Cyanoacetyl)-4-(cyanomethyl)piperidin-4-yl]-3-(phenylamino)-1H-pyrazole-4-carboxamide]	5	77

These reach a lower IC50 [1]. Values come first.

IC50 [1] [nM]	IC50 [2] [nM]	SMILES
0.3	13	CC(C(=O)N1CCC(CC#N)(n2cc(C(N)=O)c(Nc3ccnc(F)c3)n2)CC1)C(F)(F)F (stereo not drawn) [Example 34-48, 1-[4-(cyanomethyl)-1-(3,3,3-trifluoro-2-methylpropanoyl)piperidin-4-yl]-3-[(2-fIuoropyridin-4-yl)amino]-1H-pyrazole-4-carboxamide]
0.2	9	N#CCC(=O)N1CCC(CC#N)(n2cc(C(N)=O)c(Nc3ccnc(F)c3)n2)CC1 [Example 34-49, 1-[1-(cyanoacetyl)-4-(cyanomethyl)piperidin-4-yl]-3-[(2-fIuoropyridin-4-yl)amino]-1H-pyrazole-4-carboxamide]
0.2	8	CC(C)(O)CC(=O)N1CCC(CC#N)(n2cc(C(N)=O)c(Nc3ccnc(F)c3)n2)CC1 [Example 34-50, 1-[4-(cyanomethyl)-1-(3-hydroxy-3-methylbutanoyl)piperidin-4-yl]-3-[(2-fluoropyridin-4-yl)amino]-1H pyrazole-4-carboxamide]
0.3	15	N#CCC1(n2cc(C(N)=O)c(Nc3ccnc(F)c3)n2)CCN(C(=O)C2CC(F)(F)C2)CC1 [Example 34-53, 1-{4-(cyanomethyl)-1-[(3,3-difluorocyclobutyl)carbonyl]piperidin-4-yl}-3-[(2-fluoropyridin-4-yl)amino]-1H-pyrazole-4-carboxamide]
0.1	9	N#CCC1(n2cc(C(N)=O)c(Nc3ccnc(F)c3)n2)CCN(C(=O)CCC(F)(F)F)CC1 [Example 34-57, 1-[4-(cyanomethyl)-1-(4,4,4-trifluorobutanoyl)piperidin-4-yl]-3-[(2-fluoropyridin-4-yl)amino]-1H-pyrazole-4-carboxamide]
0.5	22	CS(=O)(=O)CC(=O)N1CCC(CC#N)(n2cc(C(N)=O)c(Nc3ccnc(F)c3)n2)CC1 [Example 34-58, 1-{4-(cyanomethyl)-1-[(methylsulfonyl)acetyl]piperidin-4-yl}-3-[(2-fluoropyridin-4-yl)amino]-1H-pyrazole-4-carboxamide]
0.2	3	CCC(F)(F)C(=O)N1CCC(CC#N)(n2cc(C(N)=O)c(Nc3ccnc(F)c3)n2)CC1 [Example 34-59, 1-[4-(cyanomethyl)-1-(2,2-difluorobutanoyl)piperidin-4-yl]-3-[(2-fluoropyridin-4-yl)amino]-1H-pyrazole-4-carboxamide]
0.2	10	N#CCC1(n2cc(C(N)=O)c(Nc3ccnc(F)c3)n2)CCN(C(=O)CC(F)(F)F)CC1 [Example 35-2, 1-(4-(cyanomethyl)-1-(3,3,3-trifluoropropanoyl)piperidin-4-yl)-3-(2-fluoropyridin-4-ylamino)-1H-pyrazole-4-carboxamide]
